The source of these data is patent US20210395645A1, “CLEANING LIQUID” (FUJIFILM Electronic Materials Co., Ltd., priority 2019, published 2021).

The text on this series: The following compounds were used as chelating agents in manufacture of cleaning liquids.
`NCCC(=O)O` [ALA, β-Alanine]: the pKa1 is recorded as 2.35 and the pKa2 was 9.87.

On to `N=C(N)NCCC[C@H](N)C(=O)O` [Arginine], for which the pKa1 is given as 1.82, the pKa2 stood at 9.01 and the pKa3 is 12.48.

For `O=C(O)CC(O)(CC(=O)O)C(=O)O` [Citric acid], the pKa3 worked out at 6.71.

As to `O=C(O)CN(CCN(CC(=O)O)CC(=O)O)CCN(CC(=O)O)CC(=O)O` [DTPA, Diethylenetriaminepentaacetic acid], the pKa1 stood at 2.14, the pKa2 is listed as 2.38, the pKa3 stood at 4.26 and the pKa4 worked out at 8.60. Further, the pKa5 amounted to 10.53.

On to `O=C(O)CN(CCN(CC(=O)O)CC(=O)O)CC(=O)O` [EDTA, Ethylenediaminetetraacetic acid], for which the pKa1 came out at 2.00, the pKa2 is recorded as 2.70, the pKa3 was found to be 6.2 and the pKa4 turned out to be 10.30.

Compound `O=P(O)(O)CN(CCN(CP(=O)(O)O)CP(=O)(O)O)CP(=O)(O)O` [EDTPO, N,N,N′,N′-Ethylenediaminetetrakis(methylenephosphonic acid)] returned a pKa1 of 1.46, a pKa2 of 2.72, a pKa3 of 5.06 and a pKa4 of 6.18. The same compound came in with a pKa5 of 6.63, a pKa6 of 7.43, a pKa7 of 9.22 and a pKa8 of 10.6.

For the compound `NCC(=O)O` [Gly, Glycine], the pKa1 is recorded as 2.35 and the pKa2 is listed as 9.78.

In turn, `CC(O)(P(=O)(O)O)P(=O)(O)O` [HEDP, 1-Hydroxyethylidene-1,1′-diphosphonic acid] showed a pKa1 of 1.35, a pKa2 of 2.87, a pKa3 of 7.03 and a pKa4 of 11.3.

As to `O=C(O)C(O)C(O)C(=O)O` (stereo not drawn) [Tartaric acid], the pKa2 was determined as 7.40.
